Earlier results, collected in patent publication US5639734A, “Disaccharide inflammation inhibitors and uses thereof” (priority 1994, dated 1997).

How the values were obtained:
[1] = test system: O-linked glycoprotein synthesis; conditions: background; cited from earlier work
[2] = test system: sialyl Lewis X (sLe^x) ligands, HL-60 cells; conditions: background; cited from earlier work

## CC(=O)NC1C(OCc2ccccc2)OC(CO)C(O)C1O (centres unmarked) [GalNAcα-0-Bn, GalNAc-O-benzyl]
[1]
  Effect on mucin oligosaccharide / O-linked glycoprotein synthesis (in words): stimulates mucin oligosaccharide synthesis and inhibits O-linked glycoprotein synthesis
[2]
  Expression of sLe^x ligands and adhesion to activated endothelial cells (in words): inhibits the expression of sialyl Lewis X (sLe^x) ligands and adhesion to activated endothelial cells
